Results from ChEMBL document CHEMBL5331121, “Preferred Conformation-Guided Discovery of Potent and Orally Active HIF Prolyl Hydroxylase 2 Inhibitors for the Treatment of Anemia” (J Med Chem, 2023).

Target: Egl nine homolog 1 (Homo sapiens, UniProt Q9GZT9)
Assay: Binding affinity to […] PHD2 (181 to 426 residues) (unknown origin) by fluorescence polarization assay

Egl nine homolog 1, sequence (Q9GZT9 whole entry, the tested form may be a part): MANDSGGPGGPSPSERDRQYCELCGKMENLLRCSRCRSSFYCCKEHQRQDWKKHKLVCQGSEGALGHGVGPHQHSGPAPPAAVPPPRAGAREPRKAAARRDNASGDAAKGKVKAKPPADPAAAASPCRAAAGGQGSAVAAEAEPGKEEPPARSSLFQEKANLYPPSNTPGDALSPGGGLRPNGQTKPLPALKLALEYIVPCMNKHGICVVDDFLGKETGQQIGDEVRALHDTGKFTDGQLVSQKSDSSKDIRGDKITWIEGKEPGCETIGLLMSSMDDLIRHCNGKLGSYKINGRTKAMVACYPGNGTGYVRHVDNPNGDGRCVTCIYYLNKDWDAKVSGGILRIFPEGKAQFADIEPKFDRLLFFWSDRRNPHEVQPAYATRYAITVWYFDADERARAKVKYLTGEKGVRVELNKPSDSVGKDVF

| IC50 [nM] | SMILES |
| --- | --- |
| 39.9 | O=C(O)CNC(=O)c1ncc(C2CCN(C(=O)CNc3ccc(OC(F)(F)F)cc3)CC2)cc1O |
| 158 | O=C(O)CNC(=O)c1ncc(C2CCN(C(=O)c3ccccn3)CC2)cc1O |
